# Test results as given in patent US8530404B2, “Compounds and methods for treatment of cancer” (FibroGen, Inc., priority 2005, dated 2013).
# Marks after values point to notes of the source that are not given here.
# Assays:
# HCT116-GFP colon tumors = experiment: Orthotopically implanted human HCT116-GFP colon tumor mouse xenograft (Example 4); assay type: in vivo; settings: 60 mg/kg intraperitoneal at four day intervals, three doses
# Method: Procedures were carried out as described above for Example 3, except that the tumors of GFP-transfected H-460 cells were replaced with HCT116-GFP colon tumors, and surgical orthotopic implantation was directly into colon tissue.
# The HCT116 tumor model used here is a well-characterized representative colon xenograft model. The isolation of the human HCT116 tumor cell line from a human colon carcinoma has been described. (Brattain et al (1981) Cancer Res 41:1751-1756.) To aid in the detection of tumors and metastases, HCT116 cells were transduced with genes directing the expression of fluorescent proteins (e.g., HCT116-GFP). The use of fluorescent HCT116-derived tumors in similar studies has been described previously. (Ross et al (2000) Nat Genet 24:227-235.)
# HCT116-GFP tumor fragments harvested from the stock animals were transplanted into animals by surgical orthotopic implantation (SOI) as follows. The animals were anesthetized with isoflurane and the surgical area was sterilized using iodine and alcohol. After proper exposure of the colon following a lower midline abdominal incision, the serosa of the colon was removed and two pieces of 1 mm^3 tumor fragments per mouse were implanted. An 8-0 surgical suture was used to penetrate these small tumor pieces and suture them on the wall of the intestine. The intestine was then returned to the abdominal cavity. The incision in the abdominal wall was closed with a 6-0 surgical suture in one layer. The animals were kept under isoflurane anesthesia during surgery. All procedures of the operation described above were performed under a 7× magnification microscope (Olympus). Animals were kept in a barrier facility under HEPA filtration.
# Administration of Compound A or 5-FU (5-Flurouracil) to the animals was initiated three days following tumor transplantation. 5-FU, a chemotherapeutic agent used as a positive control, was administered by intraperitoneal injection (60 mg/kg) at four day intervals for a total of three doses. Compound A was administered at either 20 mg/kg or 60 mg/kg three times per week. Tumor volumes were measured at day 15, day 22, and day 29.
# [1] = tested on: human H-460-GFP lung tumors; experiment: Orthotopically implanted human H-460-GFP lung tumor mouse xenograft, survival and metastasis (Example 3); assay type: in vivo; settings: 7.5 mg/kg i.v. on days 3, 7, 11
# Method: To examine the effect of methods and compounds of the present invention in a metastatic model of tumor progression, compounds of the invention were administered to orthotopically implanted H-460-GFP xenografted animals. Tumor models employing surgical orthotopic implantation (SOI) into the organ of origin of the original tumor are regarded as representative of cancer progression and metastasis in humans. Orthotopic implantation of H-460 increases the rate of tumor metastasis.
# This experiment is carried out as described in Example 1 above, with the following modifications. To aid in identification and scoring of metastasis, the human H-460 lung cancer cell line was replaced by genetically-engineered tumors of GFP-transfected H-460 cells. 1-2 mm^3 H460-GFP lung tumor fragments were implanted by surgical orthotopic implantation (SOI) and sutured directly into lung tissue. (Yang et al., (1998) Cancer Res 58:4217-4221.) Dosing was initiated immediately after successful confirmation of tumor take by fluorescent GFP imaging (˜5 days following tumor implantation). Doxorubicin (DOX, 7.5 mg/kg, i.v. administration) was used as a chemotherapy control, and was administered on treatment days 3, 7, and 11.
# In addition to weekly caliper measurement of primary tumor size, GFP imaging was performed on animals to monitor primary tumor progression and metastasis, starting the first day of treatment. Study endpoints were reached when an average tumor size of 2 cc or three morbid mice appear in any one group, whichever occurs first, regardless of treatment duration. Each animal was checked daily for mortality or signs of morbidity. Morbid animals were frozen. All animals, including dead animals, were examined by GFP imaging for primary tumor and metastasis at necropsy. Imaging and caliper measurements were used to determine the effects of treatment. Primary tumors were excised, measured and weighed at necropsy. Blood samples were taken during terminal sacrifice and complete blood counts (CBC) and reticulocyte analysis were performed.
# Tumor metastasis is associated with increased morbidity and mortality in humans with metastatic cancer and in animal models of metastatic cancer. […] The increased morbidity and mortality were recorded and animals were preserved for subsequent necropsy. The study was terminated after >3 animals were found morbid in the vehicle group on treatment day 14, at which point the remaining animals were sacrificed to evaluate and compare tumor progression in the various treatment groups.
# To determine metastatic frequency, the thoracic and abdominal cavities of animals were examined by fluorescent imaging.
# [2] = Complete blood counts and reticulocyte analysis in H-460 xenograft mice (Example 1); assay type: in vivo, mouse; settings: study end; 15 mg/kg i.v.
# Method: (§1) Sizes of the primary tumors were measured through the skin with calipers once per week. Tumor volumes were calculated by the formula V═(W^2*L)/2. Body weight of the mice in each group was also measured once per week during the experimental period. All animals were sacrificed following thirty-two days of treatment. Primary tumors were excised and weighed on an electronic balance. Blood samples were taken during terminal sacrifice and placed in microhematocrit tubes containing EDTA. Complete Blood Counts (CBC) and reticulocyte analysis were performed with the Cell Dyn 3700 analyzer (Abbott Diagnostics), as described by the manufacturer.
# [3] = Body weight in H-460 xenograft mice (Example 1); assay type: in vivo, mouse; settings: 15 mg/kg i.v.
# Method: as §1
# Thus, differences in tumor progression as measured by mean tumor volumes could not be attributed to any generalized toxicity or suppression of normal metabolism that might have been detected by changes in body weights.
# human A549 lung tumors = experiment: Subcutaneously implanted human A549 lung tumor mouse xenograft (Example 2); assay type: in vivo
# human H-460 lung tumors = experiment: Subcutaneously implanted human H-460 lung tumor mouse xenograft (Example 1); assay type: in vivo; settings: 15 mg/kg i.v.
# Text: Immuno-compromised athymic CD-1 nu/nu nude mice males (5-6 weeks old) were used in this study (Charles River Laboratories, Wilmington, Mass.). Animals were maintained in a HEPA-filtered environment during the experimental period. Cages, food, and bedding were autoclaved. Animal diets were obtained from Harlan Teklad (Madison, Wis.). […] The human H460 lung cancer cell line used was obtained from the National Cancer Institute. (Brower et al., (1986) Cancer Res 46:798-806.) Xenografted H-460 tumors are sensitive to chemotherapeutics commonly used in treatment of lung cancer. […] A stock tumor was established by subcutaneously injecting a cell suspension into nude mice. The resulting tumor was maintained in nude mice subcutaneously as tumor stock prior to use. Tumor implantation was performed when the stock tumors were in log phase of growth. Before implantation, tumor tissue was harvested from stock mice and placed in RPMI-1640 medium. Necrotic tissues were dissected away and viable tissues were cut into 1-2 mm^2 pieces. Tumor fragments were then transplanted subcutaneously to the right flank of the nude mice. Treatment (administration of compounds of the present invention) was started when the inoculated tumors reached approximately 100 mm^3, and continued for four weeks. […] [table] Sizes of the primary tumors were measured through the skin with calipers once per week. […] Body weight of the mice in each group was also measured once per week during the experimental period. All animals were sacrificed following thirty-two days of treatment. Primary tumors were excised and weighed on an electronic balance. Blood samples were taken during terminal sacrifice and placed in microhematocrit tubes containing EDTA. Complete Blood Counts (CBC) and reticulocyte analysis were performed with the Cell Dyn 3700 analyzer (Abbott Diagnostics), as described by the manufacturer.
# H460 tumor cells = experiment: Subcutaneous H460 lung tumor xenograft, tumor growth delay study in combination with chemotherapeutics (Example 6); assay type: in vivo, mouse; settings: Cmpd A 60 mg/kg p.o., paclitaxel 15 mg/kg i.v., carboplatin 120 mg/kg i.p.; for Median TTE (Time-to-Endpoint, tumor volume >= 2 cc): vehicle group 16.2
# Method: This study was used to determine the effect of combined treatments where compounds and methods of the invention were combined with conventional anti-tumor therapies. These experiments were performed essentially as described above in Example 3, except that 1×10^7 H460 tumor cells were implanted subcutaneously to the flanks of female Harlan nude animals. The number of animals in each group was 10. Treatments were initiated when tumors reached an average size of approximately 100 mm^3.
# The study design was representative of tumor progression studies of the TGD (Tumor Growth Delay) type, using a protocol that required individual animals to be humanely euthanized after reaching a set endpoint of tumor volume greater than or equal to 2 cc.
# These two chemotherapeutic agents are of two broad classes of conventional anti-tumor therapeutics: microtubule poisons (paclitaxcel); and DNA-directed agents, including the sub-classification of DNA alkylating agents (carboplatin). In tumor-bearing human patients, conventional anti-tumor therapy commonly use of one or both classes of chemotherapeutic agents.
# The study was initiated with administration of conventional anti-tumor treatment or vehicle control, and followed one day after with administration of Compound A or vehicle control. […] (See Table 11 and Table 12 for compound and chemotherapeutic agent dosing schedule.)
# Tumor progression was determined for each treatment group and is presented as median Time-to-Endpoint (TTE).
compound,measurement,setting,value
"O=c1[nH]cc(F)c(=O)[nH]1 [Compound 5-FU, 5-Flurouracil, reference compound]","mean tumor volume (calipers, mean +/- SD)",HCT116-GFP colon tumors; Treatment Day 15,0 +/− 0
same,"mean tumor volume (calipers, mean +/- SD)",HCT116-GFP colon tumors; Treatment Day 22,1 +/− 4
same,"mean tumor volume (calipers, mean +/- SD)",HCT116-GFP colon tumors; Treatment Day 29,8 +/− 13
"COc1cccc2c1C(=O)c1c(O)c3c(c(O)c1C2=O)C[C@@](O)(C(=O)CO)C[C@@H]3O[C@H]1C[C@H](N)[C@H](O)[C@H](C)O1 [DOX, Doxorubicin, reference compound]",Metastatic Incidence (proportion of animals exhibiting mediastinal lymph node metastasis),[1]; vehicle 9/10,4/10^#
same,proportion of surviving animals,[1]; treatment day 9,10/10
same,proportion of surviving animals,[1]; treatment day 11,10/10
same,proportion of surviving animals,[1]; treatment day 12,10/10
same,proportion of surviving animals,[1]; treatment day 13,10/10
same,proportion of surviving animals,[1]; treatment day 14,10/10
"CC(=O)O[C@H]1C(=O)[C@@]2(C)[C@H]([C@H](OC(=O)c3ccccc3)[C@]3(O)C[C@H](OC(=O)[C@H](O)[C@@H](NC(=O)c4ccccc4)c4ccccc4)C(C)=C1C3(C)C)[C@]1(OC(C)=O)CO[C@@H]1C[C@@H]2O [Taxol, paclitaxel, reference compound]",Abs Retic (reticulocyte count),[2],462
same,Baso %,[2],0.67%
same,Baso (basophils),[2],70 µL⁻¹
same,EOS %,[2],0.83%
same,Eos (eosinophil count),[2],70 µL⁻¹
same,HCT (hematocrit),[2],41.5%
same,HGB (hemoglobin),[2],14.1 g/dL
same,IRF (immature RET fraction),[2],0.56
same,Lymph %,[2],24.7%
same,Lymph (lymphocytes),[2],2600 µL⁻¹
same,MCH (mean corpuscular hemoglobin),[2],15.6 pg
same,MCV (mean corpuscular volume),[2],45.9 fL
same,Mono (monocytes),[2],300 µL⁻¹
same,Neut %,[2],70.8%
same,Neut (neutrophils),[2],7400 µL⁻¹
same,PLAT (platelets),[2],1.943e+06 µL⁻¹
same,RBC (red blood cells),[2],9.03e+06 µL⁻¹
same,RDW (RBC distribution width),[2],21.8%
same,RET (reticulocytes),[2],5.1%
same,WBC (white blood cells),[2],10400 µL⁻¹
same,mean animal body weight,[3]; day 0,26.6 grams
same,mean animal body weight,[3]; day 10,29.5 grams
same,mean animal body weight,[3]; day 17,30.6 grams
same,mean animal body weight,[3]; day 24,31.1 grams
same,mean animal body weight,[3]; day 31,30.9 grams
same,"tumor weight at necropsy, Mean",human A549 lung tumors; 15 mg/kg i.v.,0.45 g
same,A549 mean tumor volume,"human A549 lung tumors; week 0, 15 mg/kg i.v.",106 mm^3
same,A549 mean tumor volume,"human A549 lung tumors; week 1, 15 mg/kg i.v.",130 mm^3
same,A549 mean tumor volume,"human A549 lung tumors; week 2, 15 mg/kg i.v.",152 mm^3
same,A549 mean tumor volume,"human A549 lung tumors; week 3, 15 mg/kg i.v.",177 mm^3
same,A549 mean tumor volume,"human A549 lung tumors; week 4, 15 mg/kg i.v.",179 mm^3
same,A549 mean tumor volume,"human A549 lung tumors; week 5, 15 mg/kg i.v.",186 mm^3
same,A549 mean tumor volume,"human A549 lung tumors; week 6, 15 mg/kg i.v.",231 mm^3
same,A549 mean tumor volume,"human A549 lung tumors; week 7, 15 mg/kg i.v.",275 mm^3
same,A549 mean tumor volume,"human A549 lung tumors; week 8, 15 mg/kg i.v.",347 mm^3
same,A549 mean tumor volume,"human A549 lung tumors; week 9, 15 mg/kg i.v.",360 mm^3
same,increase in mean tumor volume,"human A549 lung tumors; within 1 week (7 days) from start, Taxol 15 mg/kg i.v., vehicle control 45%",23%
same,mean tumor volume,human H-460 lung tumors; day 0,83 mm^3
same,mean tumor volume,human H-460 lung tumors; day 10,387 mm^3
same,mean tumor volume,human H-460 lung tumors; day 17,813** mm^3
same,mean tumor volume,human H-460 lung tumors; day 24,1160** mm^3
same,mean tumor volume,human H-460 lung tumors; day 31,1292** mm^3
same,Mean Tumor Weight at Necropsy,human H-460 lung tumors; day 32,1.59 g
same,"% TGD, Percent Tumor Growth Delay (vs. Group control)",H460 tumor cells,104%
same,"T-C (Test-control, difference of medians)",H460 tumor cells,16.9 days
same,"Median TTE (Time-to-Endpoint, tumor volume >= 2 cc)",H460 tumor cells,33.1 days
N.N.O=C([O-])C1(C(=O)[O-])CCC1.[Pt+2] [carboplatin],"% TGD, Percent Tumor Growth Delay (vs. Group control)",H460 tumor cells,107%
same,"T-C (Test-control, difference of medians)",H460 tumor cells,17.3 days
same,"Median TTE (Time-to-Endpoint, tumor volume >= 2 cc)",H460 tumor cells,33.5 days
